Earlier results in patent US10238717B2 (Latitude Pharmaceuticals, Inc., priority 2014, dated 2019).
Where two headings read alike, the source gives them in different places.

SMILES | Concentration of sugar in water at saturation (25° C.) | Concentration of sugar in water at saturation (20° C.) | other results
OC[C@H]1O[C@@H](O[C@H]2[C@H](O)[C@@H](O)C(O)O[C@@H]2CO)[C@H](O)[C@@H](O)[C@H]1O (some centres unmarked) [lactose] | about 21.6 % w/v | – | –
OC[C@H]1O[C@H](O[C@H]2O[C@H](CO)[C@@H](O)[C@H](O)[C@H]2O)[C@H](O)[C@@H](O)[C@@H]1O [trehalose] | – | about 68.9 % w/v | –
OC[C@H]1O[C@@](CO)(O[C@H]2O[C@H](CO)[C@@H](O)[C@H](O)[C@H]2O)[C@@H](O)[C@@H]1O [sucrose] | about 200 % w/v | – | –
OC[C@@H](O)[C@@H](O)[C@H](O)[C@H](O)CO [mannitol] | – | – | Concentration of sugar in water at saturation (temperature not given): about 25 % w/v
OC[C@@H](O)[C@@H](O)[C@H](O)[C@@H](O)CO [sorbitol] | – | about 22 % w/v | –
